Active and inactive are the calls of the source.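 How the source made its calls: active means summed score of at least 50 from binding left at 10 µM, EC50 band and curve drop size; inactive means the rest.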 Bounds are passed on as bounds.

The term EC50 denotes the concentration needed to bring the measured effect to its halfway point.

Sequence of Estrogen receptor beta (Homo sapiens) (Q92731 whole entry, looked up): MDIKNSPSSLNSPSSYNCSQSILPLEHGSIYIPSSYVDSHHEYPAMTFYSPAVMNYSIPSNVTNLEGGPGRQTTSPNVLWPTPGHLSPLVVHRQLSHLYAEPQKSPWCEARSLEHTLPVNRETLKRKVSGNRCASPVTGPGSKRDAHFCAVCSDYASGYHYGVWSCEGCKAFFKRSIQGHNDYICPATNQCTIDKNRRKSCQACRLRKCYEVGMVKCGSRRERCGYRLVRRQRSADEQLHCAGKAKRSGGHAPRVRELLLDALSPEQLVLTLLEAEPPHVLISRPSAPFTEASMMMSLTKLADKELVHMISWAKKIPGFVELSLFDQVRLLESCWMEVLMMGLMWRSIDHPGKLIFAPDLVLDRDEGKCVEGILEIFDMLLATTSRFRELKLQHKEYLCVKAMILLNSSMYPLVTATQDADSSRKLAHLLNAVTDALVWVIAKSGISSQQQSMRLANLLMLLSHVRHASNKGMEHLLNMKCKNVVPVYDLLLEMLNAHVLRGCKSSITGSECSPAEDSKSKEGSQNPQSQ

The first experiment has as its target Estrogen receptor beta (Homo sapiens) (UniProt Q92731). Kind of experiment: ERbeta binders displacing fluorescent estradiol, dose response, cell-based, Cos7 ERbeta-GFP, E2-Alexa633, flow cytometry (AID 1221). The settings on record: E2-Alexa633 competitive binding.
For `Oc1ccc(-c2nc3ccc4ccccc4c3c3c2CCC3)cc1O`, the EC50 was > 10 µM (inactive).

Staying with this experiment, now noted: E2-Alexa633 competitive binding, at 10 µM (top of the series).
Take `CCCCCCNC(=O)c1cc(-c2ccco2)nc2ccccc12`: the “percent ligand binding remaining” value was “inactive”. As for `COc1ccc(/C=N/NC(=O)c2nc(-c3ccccc3)cc(-c3ccccc3)n2)cc1O`, the “percent ligand binding remaining” value is “inactive”.

Turning to `Cc1nnc(SCC(=O)NC(=O)NCc2ccco2)n1Cc1ccccc1`, the “percent ligand binding remaining” value is “inactive”. Take `CCn1c(=NC(=O)c2ccc(N3C(=O)CCC3=O)cc2)sc2c(OC)ccc(OC)c21`: the “percent ligand binding remaining” value is “inactive”.

On to `C[C@H]1CCC[C@@H](O)CCC/C=C/c2cc(O)cc(O)c2C(=O)O1`, for which the “percent ligand binding remaining” value is “inactive”.

As for `O=C(O)c1ccc2c(c1)C1C(Cl)C(Sc3ccccc3[N+](=O)[O-])CC1C(c1cccc([N+](=O)[O-])c1)N2` (stereo not drawn), the “percent ligand binding remaining” value was “inactive”. The same measure, in the same setting: the same measure for `C[C@]12CC[C@@H]3c4ccc(O)cc4[C@@H](O)C[C@H]3[C@@H]1CC[C@@H]2O`: “inactive”; for `CC(=O)Nc1ccc(OC(=O)CC2SC(=O)NC2=O)cc1` (stereo not drawn): “inactive”.

For `CCc1nc2sc3ccccc3c(=O)c2c(=O)n1Cc1ccco1`, the “percent ligand binding remaining” value is “inactive”. In the case of `C/C=C(/C(=C/C)c1ccc(O)cc1)c1ccc(O)cc1`, the percent ligand binding remaining was 45.1%.

As to `O=C(Cc1cccs1)Nc1ccc(S(=O)(=O)Nc2ncccn2)cc1`, the “percent ligand binding remaining” value is “inactive”. Take `Cc1cc(C(=O)Nc2sc3c(c2C#N)CCC3)no1`: the “percent ligand binding remaining” value is “inactive”.

With `CCNC(=O)c1ccc2c(c1)C1C3CCC(C3)C1C(c1ccccc1)N2` (stereo not drawn), the “percent ligand binding remaining” value is “inactive”. `COc1ccc(C(=O)N/N=C(\C)c2ccc3c(c2)C2C=CCC2C(c2ccccc2)N3)cc1` (stereo not drawn): the percent ligand binding remaining is 32.7%. Same read-out and setting: under `COc1cccc(C2Nc3c(F)cc(Br)cc3C3C=CCC32)c1OC` (stereo not drawn) stands “inactive”; under `N=C1C(c2nc3ccccc3[nH]2)=C(O)CN1c1ccc(CC(=O)O)cc1`, “inactive”. Consider `COc1nc(-c2ccc(Cl)cc2)ccc1-c1noc(-c2ccco2)n1`, for which the “percent ligand binding remaining” value was “inactive”. In the case of `Oc1ccc(-c2nc(-c3ccc(O)c(O)c3)cs2)cc1`, the “percent ligand binding remaining” value is “inactive”.

For the molecule `Cc1cc(C)c2c(c1)NC(c1cc3c(cc1Br)OCO3)C1CC=CC21` (stereo not drawn), the “percent ligand binding remaining” value is “inactive”. In the case of `Cc1nn(-c2ccccc2)c(/N=C/c2ccc(O)cc2)c1-c1ccccc1`, the “percent ligand binding remaining” value is “inactive”. For `COc1ccc(NC(=O)C(c2ccccc2)N(C)C(=O)c2ccc(=O)[nH]c2)cc1` (stereo not drawn), the “percent ligand binding remaining” value was “inactive”. On to `O=C1/C(=C\c2ccco2)SC(=S)N1c1ccc(O)cc1`, for which the “percent ligand binding remaining” value is “inactive”. On the same count and under the same terms, under `Cn1ccnc1SCC(=O)Nc1ccc2nc(SCC(=O)NC3CC3)sc2c1` stands “inactive”; under `Cc1cc(C)cc(OCC(=O)Nc2ccc(N3CCCC3)cc2)c1`, “inactive”. As for `Cc1ccc(-n2c(=O)c(C#N)cc3c(=O)n4cccc(C)c4nc32)cc1`, the “percent ligand binding remaining” value is “inactive”. For `Cc1cc([N+](=O)[O-])c2c(c1C)C1C=CCC1C(c1ccccn1)N2` (stereo not drawn), the “percent ligand binding remaining” value is “inactive”. `O=C1NC(c2ccc(Br)cc2)Nc2sc3c(c21)CCC3` (stereo not drawn): the “percent ligand binding remaining” value was “inactive”. On to `COc1cccc(NS(=O)(=O)c2ccc3c(c2)C2C=CCC2C(c2ccc(C(=O)O)cc2)N3)c1` (stereo not drawn), for which the “percent ligand binding remaining” value is “inactive”. Same read-out and setting: under `O=S(=O)(NCCc1csc(-c2cccnc2)n1)c1ccc(Cl)s1` stands “inactive”. On to `Brc1cc2c(cc1C1Nc3ccccc3C3C=CCC31)OCO2` (stereo not drawn), for which the “percent ligand binding remaining” value was “inactive”.

Consider `CCC(=O)Oc1ccc(/C(CC)=C(\CC)c2ccc(OC(=O)CC)cc2)cc1`, for which the percent ligand binding remaining is 32.1%. Regarding `CC(=O)c1ccc2c(c1)C1C=CCC1C(c1ccc(S(=O)(=O)N3CCOCC3)cc1)N2` (stereo not drawn), the “percent ligand binding remaining” value was “inactive”.

The record behind these values is PubChem BioAssay AID1221 (NMMLSC, 2008).
